Measurements as given in a melting point compilation (Tetko et al.; mined from patent text by program, amines drawn as free bases though some values may be those of a salt).

| melting point | Structure (SMILES) |
| --- | --- |
| 194 to 198 °C | COC(=O)c1ccc(C=C2Cc3ccccc3C2=O)cc1 |
| 142 to 144 °C | CCOC(=O)c1cnn(-c2ccc(Oc3ccc(C)cc3O)cc2)c1N |
| 245 to 246 °C | CC1Nc2cccc3c(O)ccc(c23)S1(=O)=O (centres undefined) |
| 89 to 90 °C | COC(=O)C(O)C(CC(C)C)NCc1ccccc1 (centres undefined) |
| 160 to 163 °C | Cc1ccc(S(=O)(=O)OCCCCn2c3c(c4ccccc4c2=O)C(=O)c2ccccc2-3)cc1 |
| 150 to 154 °C | CC1CCN(C(=O)C2Cc3ccccc3N2c2ccc(=O)n(C)n2)C1 (centres undefined) |
| 158 to 160 °C | O=C(O)CCCCCOc1ccc(C2OC3C(CO)OC(n4ccc(=O)[nH]c4=O)C3O2)cc1 (centres undefined) |
| 197 to 199 °C | O=C(NC1CCCCC1)NS(=O)(=O)c1ccc(CCNC(=O)N2CCCCC2=O)cc1 |
| 187 to 191 °C | CCOC(=O)c1nc(-c2ccc([N+](=O)[O-])c(C)c2)[nH]c1-c1ccc(OC)cc1 |
| 185 to 186 °C | CC[C@H](C)[C@H](NC(=O)Nc1cccc(C)c1)C(=O)N[C@H](CO)Cc1c[nH]c2ccccc12 |
| 108 to 110 °C | NC(=O)c1cc(-c2ccc(Cl)cc2)n(-c2ccc(S(N)(=O)=O)cc2)n1 |
| 135 to 136 °C | Cc1nccc(N2CCC(CN3CCN(S(=O)(=O)c4ccc(C(F)(F)F)cc4)CC3)CC2)n1 |
| 105 to 107 °C | CC(=O)ON=C(N)c1ccc(C(=O)NCCCNC(=O)[C@@H]2CCCN2S(=O)(=O)c2ccc(Cl)c(COc3cccn4cc(C)nc34)c2Cl)cc1 |
| 165 to 167 °C | CCCNC(=O)N1CCc2cc(S(=O)(=O)n3cc(-c4ccccc4)[nH]c3=O)ccc21 |
| 170 to 172 °C | Fc1cccc(F)c1-c1cncn1-c1ccc(Cl)cc1 |
| 64 to 67 °C | CCCC(c1cccc(NC(=O)OCc2ccccc2)c1)c1c(O)c2c(oc1=O)CCCCCC2 (centres undefined) |
| 134 to 137 °C | CCCN1C=CC=C2C(=O)NC(c3ccccc3OCC)N=C21 (centres undefined) |
| 200 to 202 °C | CCCc1c(OCCCOc2ccc(NC(=O)c3nnn[nH]3)cc2)ccc(C(C)=O)c1O |
| 221 to 223 °C | Cc1ccsc1C(=O)c1cccn1N1C(=O)c2ccccc2C1=O |
| 178 to 179 °C | COC[C@H]1CN(c2ccc3oc(-c4ccccc4)cc3c2)C(=O)O1 |
| 210 to 212 °C | N#CCNC(=O)C1(NC(=O)c2ccc(N3CCN(Cc4ccccc4)CC3)cc2)CCCCC1 |
| 203 to 204 °C | COc1ccc(C(=O)Nc2nc(C)c(C(=O)NCc3ccccc3)s2)cc1 |
| 176 to 179 °C | CCCCOc1cc(CN)cc(S(N)(=O)=O)c1Cc1ccccc1 |

| melting point | Structure (SMILES) |
| --- | --- |
| 312 to 313 °C | Cc1nc2c3c(c(C(=O)NC4CC4)cc2n1C)CCC(c1ccccc1)O3 (centres undefined) |
| 105 to 106 °C | CCOC(=O)C(C)(C)c1cn2nc(CCCCN3CCN(C(c4ccccc4)c4ccccc4)CC3)ccc2n1 |
| 100 to 102 °C | CC(C)C1CC(=O)C(C(=O)NS(=O)(=O)c2ccc(Cl)cc2)C(=O)C1 (centres undefined) |
| 218 to 219 °C | O=C(O)c1ccc(CN(C2CCCCC2O)S(=O)(=O)c2ccc(Cl)cc2)cc1 (centres undefined) |
| 172 to 173 °C | N#Cc1ccc(C=Cc2ccc(OCC(O)CO)cc2)cc1 (centres undefined) |
| 167 to 168 °C | C#CCc1cc(C(O)=S)cc(N)c1Oc1ccccc1 |
| 154 to 156 °C | COc1ccc(-n2nc(CCC(=O)NO)cc2-c2ccc(Cl)cc2)cc1 |
| 78 to 80 °C | COC(=O)Cc1ccc(S(=O)(=O)c2ccc(Cl)cc2)cc1 |
| 80 to 83 °C | O=C(O)Cc1cc(F)ccc1Sc1ccccc1 |
| 110 to 111 °C | CC(C)c1cn2ccccc2c1S(=O)(=O)c1ccc(OCC2CO2)cc1 (centres undefined) |
| 126 °C | OCCn1c(NC2CCN(Cc3ccccc3)CC2)nc2cccnc21 |
| 221 to 222 °C | Nc1scc2c1c(=O)oc1ccc3ccccc3c12 |
| 247 to 250 °C | Cc1cc(C#N)ccc1-c1cccc(-c2nc3cc(C#N)ccc3[nH]2)c1 |
| 218 to 220 °C | COc1ccc2c(c1)C(=O)N(c1ccc3ccn(CC#N)c3c1)C2 |
| 148 to 150 °C | CCCC(C)(Sc1ccc(OCCn2c(CC)nc3ccccc3c2=O)cc1)C(=O)OCC (centres undefined) |
| 207 °C | COc1ccc(NC(=O)c2cc(O[Si](C)(C)C(C)(C)C)ccc2NC(=O)c2ccc(C(C)(C)C)cc2)cc1 |
| 64 to 65 °C | CCOC(=O)C(Cc1ccc(C(F)(F)F)cc1)C(=O)c1ccncc1 (centres undefined) |
| 122 to 124 °C | O=S(=O)(NCC1CCN(C[C@H]2COc3ccc(Cl)cc3O2)CC1)c1c(F)cccc1F |
| 92 to 93 °C | ClCCCCOc1ccccc1/C=C/c1nc2ccccc2o1 |
| 200 to 201 °C | Nc1nc2cc(OCc3ccccc3)ccc2c2c1ncn2CCOc1ccccc1 |
| 197 °C | CCOCCn1c(NC2CCN(C(=O)c3ccccc3N)C(Cc3ccccc3)C2)nc2ccccc21 (centres undefined) |
| 60 to 61 °C | O=C1Cc2cc(Cl)ccc2Oc2ccccc21 |
| 69 to 75 °C | CCCCC(=O)NCCc1c(OC)ccc2ccccc12 |

Further lines, the compound ahead of its results:

| Structure (SMILES) | melting point |
| --- | --- |
| Cn1c(CCCO)nc2ccccc21 | 107 °C |
| NNc1nc(-c2ccccc2)co1 | 158 to 160 °C |
| COC(=O)c1ccc(CCc2c[nH]c3nc(N)[nH]c(=O)c23)cc1 | > 220 °C |
| CCCc1nc2c(C(F)(F)F)cccc2c(O)c1C(=O)OCC | 98 °C |
| CCCC1Cc2cc(OCC(=O)O)c(Cl)c(Cl)c2C1=O (centres undefined) | 199 to 203 °C |
| CCOC(=O)C1=C(C(F)(F)F)Nc2n[nH]cc2C1c1ccc(C(=O)OCC)cc1 (centres undefined) | 157 to 160 °C |
| COC(=O)COc1cc2c(c3c1c(C(=O)C(N)=O)c(C)n3Cc1ccccc1)CCCC2 | 115 to 125 °C |
| COc1nnc2n1-c1sc(CCC(=O)N3CCOCC3)cc1C(c1ccccc1Cl)=NC2 | 163 to 164 °C |
| Cc1cc(C)c2c(n1)N(CCN1CCOCC1)c1ccccc1N(C)C2=O | 133 to 135 °C |
| COc1ccc(Cl)cc1C1=NC(C)(C)CO1 | 50 to 51 °C |
| CC(=O)NCC=C1CCc2ccc3nn(C)cc3c21 | 200 to 202 °C |
| CCC12CCC3C4CCC(=O)C=C4CC(C)C3C1CCC2O (centres undefined) | 152 to 154 °C |
| N#Cc1ncn2c1[C@@H]1CCCN1C(=O)c1cc(F)ccc1-2 | 254 to 256 °C |
| COC1(c2ccco2)CC2=C(C=C1C(F)(F)F)N(C(=O)Nc1cccnc1)CC2 (centres undefined) | 92 to 94 °C |
| O=C(O)c1ccc(C(=O)OC(c2ccc3c(c2)OCO3)c2ccc3c(c2)OCO3)s1 | 141 to 148 °C |
| CNC(=O)C1=CC(C)(CF)Oc2ccc([N+](=O)[O-])cc21 (centres undefined) | 171 to 173 °C |
| CN1C(=O)CC[C@]2(C)c3ccc(-c4c(F)c(F)c(F)c(F)c4F)cc3CC[C@@H]12 | 92 to 100 °C |
| CC(=O)OC1CSC(Sc2ccc(C(C)=O)cc2)C(OC(C)=O)C1OC(C)=O (centres undefined) | 122 °C |
| CCSc1cc(C)nc(SCC)c1NC(=O)CSc1nc2cccc(S(C)(=O)=O)c2o1 | 159 to 162 °C |
| CCC(C)CNC(=S)NS(=O)(=O)c1sc(Cl)cc1N (centres undefined) | 116 to 118 °C |

| Structure (SMILES) | melting point |
| --- | --- |
| CC(C)(C)OC(=O)c1cc[nH]c1 | 82 to 84 °C |
| COC(=O)C1=CCC(NC(C)=O)C1 (centres undefined) | 72 to 74 °C |
| C1=Cc2ccccc2ON1 | 134 to 136 °C |
| O=C1c2ccccc2C(=O)N1CC(=CF)CBr | 86 to 87 °C |
| Clc1ccc(C(c2ccc(Cl)cc2)(c2nc[nH]n2)n2ccnc2)cc1 | 188 to 191 °C |
| Cn1cc(C=CC(=O)NCCO)c([N+](=O)[O-])n1 | 176 to 178 °C |
| COc1ccc2c(CCBr)c[nH]c2c1 | 98 to 101 °C |
| COC1CCC2C3CCC4CC(=O)C(Cl)CC4(C)C3CCC12C (centres undefined) | 202 to 210 °C |
| NC(=O)[C@H]1NC(=O)[C@H]1NC(=O)OCc1ccccc1 | 248 to 249 °C |
| Clc1ccc(C(c2ccccc2)(c2ncc[nH]2)c2ncc[nH]2)cc1 | 140 °C |
| C=CCOc1cccc2c(=O)cc(N3CCOCC3)oc12 | 134 to 136 °C |
| OC(Cn1cncn1)(c1ccc(Cl)cc1)C1(C2CC2)CC1 (centres undefined) | 110 to 112 °C |
| CC(C)(C)NS(=O)(=O)c1cc2c(s1)S(=O)(=O)NCC2O (centres undefined) | 144 to 147 °C |
| O=C(O)CCCCCC1=CCCC1=O | 70 to 72 °C |
| COC(=O)C1(NC(=O)Cc2cc(-c3ccc(Cl)cc3)ccc2Cl)CCCC(C(F)(F)F)C1 (centres undefined) | 148 °C |
| O=c1cccnn1-c1ccc2nc([C@H]3C[C@H](N4CCCCC4)C3)sc2c1 | 127 to 128 °C |
| FC(F)(F)c1ccnc(N2CCN(Cc3n[nH]c4ccccc34)CC2)c1 | 99 to 100 °C |
| O=CCOc1cccc(C(=O)O)c1 | 120 to 130 °C |
| Fc1ccc(Cl)c2sc(CBr)cc12 | 89 to 90 °C |
| Cc1ccc([N+](=O)[O-])c(CC2NC(=O)NC2=O)c1C (centres undefined) | 172 to 174 °C |

| Structure (SMILES) | melting point |
| --- | --- |
| CC1(C)COc2cc3c(cc21)C1(CO3)C(=O)Nc2ccccc21 (centres undefined) | 95 to 100 °C |
| O=C(O)CCn1ccn([C@H]2CCc3c(F)cc(F)cc3C2)c1=S | 182 to 184 °C |
| CN1CCN(c2cc3c(cc2F)c(=O)n(O)c(=O)n3-c2ccc(F)c(Cl)c2)CC1 | 197 to 199 °C |
| CC[C@H](C)CNC(=O)C[C@H](O)[C@H](CC(C)C)C(=O)OC(C)(C)C | 83 to 84 °C |
| CSc1cc(SC)c2ccc3c(SC)cc(SC)c4ccc1c2c43 | 275 to 280 °C |
| Cc1[nH]c2ccccc2c1C(=O)CCCl | 137 to 140 °C |
| Cc1ccc(OCC(=O)O)c(I)n1 | 170 to 172 °C |
| Cc1nc(O)c(C)c(Cl)n1 | 224 to 225 °C |
| CCn1cc(C(=O)O)c(=O)cc1Cl | 155 to 157 °C |
| Oc1nc(-c2ccc3c(c2)CCO3)nc2ccccc12 | 289 to 294 °C |
| CC(C)(C)OC(=O)NC[C@H](O)[C@@H](O)[C@H](O)[C@H](O)CO | 81 to 83 °C |
| O=C(O)C(Cl)=C(Cl)C(=O)N(CCCl)CCCl | 107 to 110 °C |
| CC1(C)SC(c2ccc(O)cc2)NC1C(=O)O (centres undefined) | 207 to 209 °C |
| CCOC(=O)c1cnc2c(c(C)nn2CC)c1Cl | 70 to 74 °C |
| COCc1nc2c(N)nc3cc(CCC(=O)N(C)C)ccc3c2n1CC(C)(C)O | 142 to 145 °C |
| Oc1ccccc1Nc1cc[nH]n1 | 163 to 164 °C |
| COCCOCC(=O)Nc1c([N+](=O)[O-])cnn1-c1c(Cl)cc(C(F)(F)F)cc1Cl | 103 to 105 °C |
| COc1cc2c(cc1OC)C1N=Cc3cc4c(cc3C1CC2)OCO4 (centres undefined) | 208 to 210 °C |
